Earlier results as cited in patent US20170216217A1, “SPHERICAL MICROCAPSULES WITH ENHANCED ORAL BIOAVAILABILITY” (I2O Pharma Ltd., priority 2016, published 2017).

Oral bioavailability: 27%
Structure (SMILES): CN1CCN(C2=Nc3cc(Cl)ccc3Nc3ccccc32)CC1 [Clozapine]
